The Ki is the dissociation constant of the complex between target and ligand, obtained from inhibition or displacement.

Where two headings read alike, the source gives them in different places.

The assay has as its target T1, hBLT1 (Homo sapiens, UniProt Q15722).
T1 construct: expressed in transfected cells; membrane preparation
The assay can be described thus: [3H]-LTB4 binding assay in hBLT1 containing membranes. Particulars: [3H]-LTB4 displacement, hBLT1/CHO-K1 membranes, Ki = IC50/2.7. On the procedure:
[^3H]-LTB4 and known BLT1 and BLT2 antagonists are used to generate LTB4 displacement curves and IC50 values for compounds of the present invention. Receptor inhibition by compounds of the present invention is determined relative to BLT1 inhibitor and BLT2 inhibitor reference molecules to obtain percent efficacies.
hBLT1 Test Compound Preparations: For hBLT1 assays, test compounds are prepared in DMSO to make up a 10 mM stock solution. […]
hBLT1/CHO-K1 Stable Xcell Line Preparations: Human BLT1 receptor DNA (National Center for Biotechnology Information (NCBI), Reference Sequence NM_181657) is synthesized and cloned into expression vector pcDNA3.1/Hygro(+) (Invitrogen V87020). […] Single clones are isolated and screened for BLT1 expression and function using Western Blot analysis and Fluorometric Imaging Plate Reader (FLIPR®) calcium release assay. […]
[^3H]-LTB4 (30 μL of 1.3 nM, PerkinElmer NET-852) is aliquoted into a 96-well Millipore Multiscreen-filter binding plate (catalogue number MAFBNOB10) which is pre-wetted with Buffer A (50 mM HEPES pH 7.4, 10 mM MgCl2, 10 mM NaCl, 10% glycerol, 1% BSA). […] The plate is allowed to sit for 16 h and then read on a Packard Instrument Company Topcount® for 1 min. […] The IC50s are converted to Ki values by dividing by 2.7 (previously calculated). […]

T1 sequence (Q15722 whole entry): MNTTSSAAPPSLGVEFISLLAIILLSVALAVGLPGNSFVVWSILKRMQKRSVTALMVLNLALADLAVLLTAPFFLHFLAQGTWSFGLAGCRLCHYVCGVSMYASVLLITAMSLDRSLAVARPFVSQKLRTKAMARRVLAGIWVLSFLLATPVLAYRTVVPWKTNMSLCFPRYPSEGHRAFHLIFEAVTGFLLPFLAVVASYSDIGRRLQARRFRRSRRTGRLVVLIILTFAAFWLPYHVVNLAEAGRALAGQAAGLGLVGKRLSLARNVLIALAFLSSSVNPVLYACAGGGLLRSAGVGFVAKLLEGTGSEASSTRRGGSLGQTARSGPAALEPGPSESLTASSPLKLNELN

As to `CCCc1c(NC(=O)CC(C)(C)C(=O)[O-])cccc1OCCCOc1cc(O)c(-c2ccc(F)cc2)cc1CC.[Na+]` [Example 2, Sodium 4-[[3-[3-[2-ethyl-4-(4-fluorophenyl)-5-hydroxy-phenoxy]propoxy]-2-propyl-phenyl]amino]-2,2-dimethyl-4-oxo-butanoate], the inhibition constant Ki is, setting by setting: (read-out: absolute Ki) 5.5 nM; (read-out: relative Ki) 10.4 nM.
